Read-outs that look alike come from different tables or passages of the source.
Legend:
P. falciparum DHODH = biological target: T1, P. falciparum DHODH (Plasmodium falciparum, UniProt Q08210); assay: DHODH inhibition, steady-state DCIP assay (PfDHODH); assay type: biochemical; conditions: recombinant PfDHODH, DCIP method, 25°C, 5 nM enzyme
T1 construct: His6 (N); made in house; host or cells: E. coli BL21-DE3 (phage-resistant)
Protocol: (§1) Compound stocks were prepared at 10-100 mM in DMSO, and diluted working stocks in DMSO were generated as appropriate. Compounds were plated from DMSO stocks in 96 well plate format using a Tecan D300e digital dispenser to generate a 3-fold dilution series over a concentration range of 0.0003 -100 µM (or 30 µM), yielding a final DMSO concentration of 1% in the assay. The top concentration used in the dose response was determined by the initial DMSO stock concentrations:100 µM for 100 mM stocks, and 30 µM for 10 mM stocks. Triplicate rate data were collected at each inhibitor concentration. Inhibitory IC50 values were determined by fitting the data to log (inhibitor) vs response equation Y = bottom + (top - bottom)/(1 + 10A ((X - Log IC50))) in GraphPad Prism.

P. falciparum 3D7 = assay: Asexual blood-stage growth inhibition assay, SYBR green method; assay type: cell-based; conditions: ring-stage 3D7 parasites
Protocol: Asexual blood-stage EC50 assays. […] Compound stocks prepared in DMSO were plated using a Tecan D300e automated low volume liquid handler. Ring-stage 3D7 or Dd2 parasites (60 µL cells) (2% hematocrit, 0.5% parasitemia, final DMSO concentration 0.5%) were added to plates, incubated with compounds over a range of concentrations in technical triplicate for 72 h at 37 °C, 5% CO2, and then frozen (-80°C) overnight before analysis. […] Data were analyzed by non-linear regression using GraphPad Prism to determine the EC50 by fitting to the built-in equation (log(inhibitor) vs response-variable slope with four parameters).

P. vivax DHODH = P. vivax DHODH (Plasmodium vivax, UniProt A5K1N1); assay: DHODH inhibition, steady-state DCIP assay (PvDHODH); assay type: biochemical
Description: (§2) DOI: 10.1074/jbc.M206854200).
(§3) Proteins were expressed and purified on a Pharmacia FPLC using HisTrap HP column chromatography followed by gel filtration chromatography on a Pharmacia HiLoad 16/600 Superdex 200 column, and protein concentration determined based on OD280 using the previously described extinction coefficients (Kokkonda et al., 2020, J Med Chem, 63 (9), 4929-4956. DOI: 10.1021/acs.jmedchem.0c00311). Purified proteins were >95% pure based on SDS-PAGE analysis.
(§4) DHODH activity was monitored in a steady-state assay using the 2,6-dichloroindophenol (DCIP) method at 25°C in assay buffer (100 mM HEPES, pH 8.0, 150 mM NaCl, 1% glycerol, 0.1% Triton X-100 reduced) plus substrates 20 µM CoQD, 200 µM DHO, 120 µM DCIP, and 5 nM enzyme as previously described (Malmquist et al, 2008, Biochemistry, 47 (8), 2466-2475. DOI: 10.1021/bi702218c).
as §1, with “Prism. DSM265 ^2 was plated as an assay control in all studies.” for “Prism.”

Human DHODH = biological target: T2, Human DHODH (Homo sapiens, UniProt Q02127); assay: DHODH inhibition, steady-state DCIP assay (human DHODH); assay type: biochemical; conditions: recombinant HsDHODH, DCIP method, 25°C, 5 nM enzyme; top concentration 100 µM or 30 µM
T2 construct: C-terminal His6-tagged HsDHODH residues 29-395 in pET-22b (start ^29MATGDE); His6 (C); made in house; host or cells: E. coli BL21-DE3 (phage-resistant)
Description: as §2, §3, §4
as §1, with “Prism. DSM265 ^2 was plated as an assay control in all studies.” for “Prism.”

[1] = Plasmodium falciparum, 3D7, 72 h
[2] = recombinant PvDHODH, DCIP method, 25°C, 5 nM enzyme; read-out: P. vivax DHODH (IC50)
[3] = read-out: P. vivax DHODH (IC50); recombinant PvDHODH, DCIP method, 25°C, 5 nM enzyme

T1 sequence (Q08210 158-569): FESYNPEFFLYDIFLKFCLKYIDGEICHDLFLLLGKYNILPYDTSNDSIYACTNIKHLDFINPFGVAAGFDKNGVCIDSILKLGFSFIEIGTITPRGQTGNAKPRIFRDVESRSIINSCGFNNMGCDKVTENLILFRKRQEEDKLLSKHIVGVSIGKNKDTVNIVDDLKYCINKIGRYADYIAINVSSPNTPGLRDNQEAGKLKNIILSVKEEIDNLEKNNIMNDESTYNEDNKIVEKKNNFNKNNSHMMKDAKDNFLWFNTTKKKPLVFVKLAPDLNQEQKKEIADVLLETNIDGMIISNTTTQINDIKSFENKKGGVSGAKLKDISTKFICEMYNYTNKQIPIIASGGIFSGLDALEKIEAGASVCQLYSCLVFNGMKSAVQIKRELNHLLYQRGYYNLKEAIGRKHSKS
Sequence of P. vivax DHODH (A5K1N1 entry or part of it): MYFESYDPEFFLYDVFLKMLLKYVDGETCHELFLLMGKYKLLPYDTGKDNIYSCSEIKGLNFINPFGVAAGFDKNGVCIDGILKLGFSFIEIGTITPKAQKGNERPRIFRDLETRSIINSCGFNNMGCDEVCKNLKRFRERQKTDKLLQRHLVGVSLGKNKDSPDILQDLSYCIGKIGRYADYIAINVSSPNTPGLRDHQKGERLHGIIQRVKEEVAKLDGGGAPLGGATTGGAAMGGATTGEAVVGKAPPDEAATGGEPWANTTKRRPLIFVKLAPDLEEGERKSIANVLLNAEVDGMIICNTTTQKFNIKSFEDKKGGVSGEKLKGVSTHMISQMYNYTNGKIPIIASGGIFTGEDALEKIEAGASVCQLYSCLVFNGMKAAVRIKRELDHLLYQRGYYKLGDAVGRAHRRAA
T2 sequence (Q02127 29-395): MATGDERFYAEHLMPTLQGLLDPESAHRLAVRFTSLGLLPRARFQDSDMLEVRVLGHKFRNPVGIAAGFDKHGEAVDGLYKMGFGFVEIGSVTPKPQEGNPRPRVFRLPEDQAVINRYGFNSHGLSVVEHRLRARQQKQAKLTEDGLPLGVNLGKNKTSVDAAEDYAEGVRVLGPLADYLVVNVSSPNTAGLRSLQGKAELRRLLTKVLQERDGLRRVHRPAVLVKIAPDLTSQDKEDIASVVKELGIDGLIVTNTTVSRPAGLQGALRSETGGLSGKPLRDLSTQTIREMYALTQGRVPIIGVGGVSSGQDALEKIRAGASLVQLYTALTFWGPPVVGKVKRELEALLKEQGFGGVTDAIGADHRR

| Compound | IC50 (P. falciparum DHODH) [nM] | EC50 (P. falciparum 3D7; [1]) [nM] | IC50 (P. vivax DHODH; [2]) [nM] | IC50 (Human DHODH) [nM] | EC50 (P. falciparum 3D7; 72 h) [nM] | IC50 (P. vivax DHODH; [3]) [nM] |
| --- | --- | --- | --- | --- | --- | --- |
| CC(C)[C@@](O)(c1cnc(C(F)(F)F)c(Cl)c1)c1c2ccn(C3CC3)c(=O)c2nn1C (single isomer, unassigned) [1-1] | 46 | 16 | 40 | > 30000 |  |  |
| Cn1nc2c(=O)n(C3CC3)ccc2c1[C@](O)(c1ccc(C(F)(F)F)c(C#N)c1)C1CC1 (single isomer, unassigned) [1-3] | 17 | 1.3 | 17 | > 30000 |  |  |
| CC[C@@](O)(c1ccc(C(F)(F)F)c(C#N)c1)c1c2ccn(C3CC3)c(=O)c2nn1C (single isomer, unassigned) [1-5] | 17 | 0.75 | 21 | 910 |  |  |
| Cn1nc2c(=O)n(C3CC3)ccc2c1[C@](C)(O)c1ccc(F)c(Cl)c1 (single isomer, unassigned) [1-9] | 16 | 0.92 | 6.9 | 14000 |  |  |
| CC[C@@](O)(c1ccc(F)c(Cl)c1)c1c2ccn(C3CC3)c(=O)c2nn1C (single isomer, unassigned) [1-13] | 7 | 0.49 | 11 | 670 |  |  |
| CC[C@@](O)(c1cnc(C(F)(F)F)c(Cl)c1)c1c2ccn(C3CC3)c(=O)c2nn1C (single isomer, unassigned) [1-14] | 14 | 0.64 | 18 | 4200 |  |  |
| Cn1nc2c(=O)n(C3CC3)ccc2c1[C@](O)(c1cnc(C(F)(F)F)c(Cl)c1)C1CC1 (single isomer, unassigned) [1-16] | 16 | 3.2 | 23 | > 30000 |  |  |
| Cn1nc2c(=O)n(C3CC3)ccc2c1[C@](O)(c1ccc(F)c(Cl)c1)C1CC1 (single isomer, unassigned) [1-18] | 12 | 9 | 11 | 22000 |  |  |
| CC[C@@](O)(c1cc(F)c(Cl)c(F)c1)c1c2ccn(C3CC3)c(=O)c2nn1C (single isomer, unassigned) [1-20] |  | 0.5 | 19 | 1400 |  |  |
| CC[C@@](O)(c1ccc(C(F)(F)F)nc1)c1c2ccn(C3CC3)c(=O)c2nn1C (single isomer, unassigned) [1-22] |  | 2.7 | 48 | 5300 |  |  |
| CCn1cc(F)c2c([C@@](O)(CC)c3ccc(C(F)(F)F)nc3)n(C)nc2c1=O (single isomer, unassigned) [1-24] | 24 | 1.2 | 33 | 6200 |  |  |
| Cn1nc2c(=O)n(C3CC3)ccc2c1[C@](O)(c1ccc(C(F)(F)F)nc1)C1CC1 (single isomer, unassigned) [1-26] | 46 | 6.7 | 48 | > 30000 |  |  |
| CCn1cc(C2CC2)c2c([C@H](O)c3cnc(C(F)(F)F)c(Cl)c3)n(C)nc2c1=O (single isomer, unassigned) [1-28] | 26 | 4.6 | 11 | > 100000 |  |  |
| CCn1cc(C)c2c([C@H](O)c3ccc(Cl)c(F)c3)n(C)nc2c1=O (single isomer, unassigned) [1-30] | 18 | 7 | 7.9 | 34000 |  |  |
| CCn1ccc2c([C@](O)(c3cnc(C(F)(F)F)c(Cl)c3)C3CC3)n(C)nc2c1=O (single isomer, unassigned) [1-32] |  | 2.4 | 8 | > 100000 |  |  |
| CCn1ccc2c([C@@](O)(CC)c3ccc(F)c(Cl)c3)n(C)nc2c1=O (single isomer, unassigned) [1-34] | 21 | 0.3 | 4.1 | 3900 |  |  |

| Compound | IC50 (P. falciparum DHODH) [nM] | EC50 (P. falciparum 3D7; [1]) [nM] | IC50 (P. vivax DHODH; [2]) [nM] | IC50 (Human DHODH) [nM] | EC50 (P. falciparum 3D7; 72 h) [nM] | IC50 (P. vivax DHODH; [3]) [nM] |
| --- | --- | --- | --- | --- | --- | --- |
| CCn1ccc2c([C@](C)(O)c3cnc(C(F)(F)F)c(Cl)c3)n(C)nc2c1=O (single isomer, unassigned) [1-36] | 45 | 1.4 | 9.2 | > 100000 |  |  |
| CCn1ccc2c([C@](O)(c3ccc(F)c(Cl)c3)C3CC3)n(C)nc2c1=O (single isomer, unassigned) [1-38] | 17 | 1.5 | 4.3 | 88000 |  |  |
| CCn1ccc2c([C@](C)(O)c3ccc(F)c(Cl)c3)n(C)nc2c1=O (single isomer, unassigned) [1-40] | 17 | 0.42 | 5.2 | 80000 |  |  |
| CCn1ccc2c([C@@](O)(CC)c3cnc(C(F)(F)F)c(Cl)c3)n(C)nc2c1=O (single isomer, unassigned) [1-42] | 13 | 0.49 | 7.9 | 41000 |  |  |
| CCn1ccc2c([C@](O)(c3ccc(C(F)(F)F)nc3)C3CC3)n(C)nc2c1=O (single isomer, unassigned) [1-44] |  | 7.2 | 29 | > 100000 |  |  |
| Cn1nc2c(=O)n(C3CC3)ncc2c1[C@](O)(c1cnc(C(F)(F)F)c(Cl)c1)C1CC1 (single isomer, unassigned) [2-10] |  | 15 | 21 | > 30000 |  |  |
| CC[C@@](O)(c1cnc(C(F)(F)F)c(Cl)c1)c1c2cnn(C3CC3)c(=O)c2nn1C (single isomer, unassigned) [2-14] |  | 2.7 |  | > 30000 |  |  |
| CC[C@@](O)(c1cnc(C(F)(F)F)c(Cl)c1)c1c2ncn(C3CC3)c(=O)c2nn1C (single isomer, unassigned) [3-5] |  | 0.94 | 17 | 6800 |  |  |
| Cn1nc2c(=O)n(C3CC3)ccc2c1[C@](N)(c1cnc(C(F)(F)F)c(Cl)c1)C1CC1 (single isomer, unassigned) [4-9] | 44 | 14 |  | 21000 |  |  |
| CC[C@@](N)(c1ccc(C(F)(F)F)c(Cl)c1)c1c2cnn(C3CC3)c(=O)c2nn1C (single isomer, unassigned) [4-18] |  | 3.4 | 6.2 | 4700 |  |  |
| Cn1nc2c(=O)n(C3CC3)ncc2c1[C@](O)(c1cnc(C(F)(F)F)c(Cl)c1)C(F)(F)F (single isomer, unassigned) [5-1] |  | 3.8 | 20 | > 30000 |  |  |
| Cn1nc2c(=O)n(C3CC3)ccc2c1[C@](O)(c1cnc(C(F)(F)F)c(Cl)c1)C(F)(F)F (single isomer, unassigned) [5-5] |  | 0.51 |  | > 30000 |  |  |
| Cn1nc2c(=O)n(C3CC3)ccc2c1[C@](O)(c1ccc(C(F)(F)F)nc1)C(F)(F)F (single isomer, unassigned) [5-11] |  | 1.9 | 25 | > 30000 |  |  |
| Cn1nc2c(=O)n(C3CC3)cnc2c1[C@](O)(c1ccc(C(F)(F)F)c(C#N)c1)C(F)(F)F (single isomer, unassigned) [5-56] | 18 |  |  |  | 0.14 |  |
| Cn1nc2c(=O)n(C3CC3)ccc2c1[C@](O)(c1ccc(C(F)(F)F)c(Cl)c1)C(F)(F)F (stereo in doubt) [5-7] |  | 0.17 |  | 4700 |  | 9.1 |
| Cn1nc2c(=O)n(C3CC3)ccc2c1[C@](C)(O)c1cnc(C(F)(F)F)c(Cl)c1 [1-10] | 25 | 1.4 |  |  |  | 9.7 |

— patent publication EP4680608B1, “2,6-DIHYDRO-7H-PYRAZOLO[3,4-C]PYRIDIN-7-ONE DERIVATIVES AS ANTI-MALARIAL AGENTS” (MMV Medicines for Malaria Venture, priority 2024, dated 2025)
